Assay: Stability of the compound assessed as half life in 1M sodium acetate buffer of pH 4.5 at 37 degC
Format: physicochemical

| half-life [min] | Structure (SMILES) |
| --- | --- |
| 23 | COC(=O)[C@H](CCCCNC(=O)Cc1ccc(N=C2C(=O)N(Cc3ccc(OC)cc3)c3c(Br)cc(Br)cc32)cc1)NC(C)=O (mixture of isomers) |
| 33 | COC(=O)[C@H](CCCCNC(=O)Cc1cccc(N=C2C(=O)N(Cc3ccc(OC)cc3)c3c(Br)cc(Br)cc32)c1)NC(C)=O (mixture of isomers) |

Reference: ChEMBL document CHEMBL1681682, “Synthesis and hydrolytic evaluation of acid-labile imine-linked cytotoxic isatin model systems” (Bioorg Med Chem, 2011)
